According to patent publication US4689227A, “Antibacterial composition” (Hoffmann-La Roche Inc., priority 1984, dated 1987):
Converted amounts (≈) assume the structure as drawn. Read-outs that look alike come from different tables or passages of the source.

Experiments:
Format in all cases: cell-based
[1] = test system: Enterobacter strains; test: Activity and synergism against Enterobacter strains
Description: In the scope of the present invention it has been ascertained that compound A, which has hitherto not been considered as a combination partner for mecillinam, is especially well suited for such a combination.
(§1) In the following Table there are presented for the composition in accordance with the invention the minimum inhibitory concentrations (MIC values in μ/ml) determined in in vitro comparative tests in the case of various infections with pathogenic microorganisms.

[2] = test system: Citrobacter freundii 1982; test: In vitro activity (MIC), agar dilution test
Description: as §1
(§2) In vitro activity of compound A and mecillinam (MEC) against various
(§3) of bacteria (MIC μg/ml) Method: Agar dilution test with DST agar

[3] = test system: Enterobacter cloacae 908; test: In vitro activity (MIC), agar dilution test
Description: as §1, §2, §3

[4] = test system: Acinetobacter anitratus 5I-156; test: In vitro activity (MIC), agar dilution test; details: Acinetobacter calcoaceticus, 5I156
Description: as §1, §2, §3

[5] = test system: Pseudomonas aeruginosa 5748; test: In vitro activity (MIC), agar dilution test
Description: as §1, §2, §3

[6] = test system: Enterobacter cloacae 5; test: In vitro activity (MIC), agar dilution test
Description: as §1, §2, §3

[7] = test system: Pseudomonas aeruginosa 1937 E; test: In vitro activity (MIC), agar dilution test
Description: as §1, §2, §3

[8] = test system: Enterobacter cloacae MK 373; test: In vitro activity (MIC), agar dilution test; details: MK373
Description: as §1, §2, §3

[9] = test system: Enterobacter cloacae 163; test: In vitro activity (MIC), agar dilution test
Description: as §1, §2, §3

[10] = test system: Pseudomonas aeruginosa 1920 E; test: In vitro activity (MIC), agar dilution test
Description: as §1, §2, §3

[11] = test system: Escherichia coli 5/9; test: In vitro activity (MIC), agar dilution test
Description: as §1, §2, §3

[12] = test system: Pseudomonas aeruginosa 5646; test: In vitro activity (MIC), agar dilution test
Description: as §1, §2, §3

[13] = test system: Citrobacter freundii 1385 b; test: In vitro activity (MIC), agar dilution test
Description: as §1, §2, §3

[14] = test system: Enterobacter agglomerans 960; test: In vitro activity (MIC), agar dilution test; details: Pantoea agglomerans
Description: as §1, §2, §3

[15] = test system: Enterobacter cloacae P99; test: In vitro activity (MIC), agar dilution test
Description: as §1, §2, §3

[16] = test system: Pseudomonas aeruginosa 143724 R; test: In vitro activity (MIC), agar dilution test
Description: as §1, §2, §3

[17] = test system: Enterobacter cloacae MK 1617; test: In vitro activity (MIC), agar dilution test
Description: as §1, §2, §3

[18] = single substance, DST agar (Oxoid), read-out: MIC

CC1(C)S[C@@H]2[C@H](/N=C/N3CCCCCC3)C(=O)N2[C@H]1C(=O)O [MEC, mecillinam]
sensitivity of the strains [1]: resistant
MIC [2]: > 256 µg/mL
MIC [3]: > 256 µg/mL
MIC [4]: > 256 µg/mL
MIC [5]: > 256 µg/mL
MIC [6]: > 256 µg/mL
MIC [7]: > 256 µg/mL
MIC [8]: > 256 µg/mL
MIC [9]: > 256 µg/mL
MIC [10]: > 256 µg/mL
MIC [11]: > 256 µg/mL
MIC [12]: > 256 µg/mL
MIC [13]: > 256 µg/mL
MIC [14]: > 256 µg/mL
MIC [15]: > 256 µg/mL
MIC [16]: > 256 µg/mL
MIC ([17]; MK1617): > 256 µg/mL

NC(=O)OC[C@@H]1[C@H](NC(=O)/C(=N\OCC(=O)O)c2csc(N)n2)C(=O)N1S(=O)(=O)O [Compound A, (2S,3S)-3-((Z)-2-(2-amino-4-thiazolyl)-2-[(carboxymethoxy)imino]acetamido)-2-[(carbamoyloxy)-methyl]-4-oxo-1-azetidinesulphonic acid]
sensitivity of the strains [1]: only moderately sensitive
MIC [2, 18]: 4 µg/mL (≈ 8.58 µM)
MIC [3, 18]: 32 µg/mL (≈ 68.6 µM)
MIC [4, 18]: 16 µg/mL (≈ 34.3 µM)
MIC [5]: 8 µg/mL (≈ 17.2 µM)
MIC [6, 18]: 8 µg/mL (≈ 17.2 µM)
MIC [7, 18]: 2 µg/mL (≈ 4.29 µM)
MIC [8]: 4 µg/mL (≈ 8.58 µM)
MIC [9, 18]: 32 µg/mL (≈ 68.6 µM)
MIC [10, 18]: 4 µg/mL (≈ 8.58 µM)
MIC [11, 18]: 2 µg/mL (≈ 4.29 µM)
MIC [12, 18]: 8 µg/mL (≈ 17.2 µM)
MIC [13, 18]: 8 µg/mL (≈ 17.2 µM)
MIC [14, 18]: 16 µg/mL (≈ 34.3 µM)
MIC [15]: 16 µg/mL (≈ 34.3 µM)
MIC [16, 18]: 8 µg/mL (≈ 17.2 µM)
MIC ([17]; MK1617, single substance, DST agar (Oxoid), read-out: MIC): 32 µg/mL (≈ 68.6 µM)
